{"source": "paper PMC6879718", "about": "“Mycobacterial OtsA Structures Unveil Substrate Preference Mechanism and Allosteric Regulation by 2-Oxoglutarate and 2-Phosphoglycerate” (mBio, 2019)", "key": {"[1]": {"target": "T1, M. thermoresistibile OtsA R384E (Mycolicibacterium thermoresistibile, UniProt G7CGT2, R384E)", "T1 sequence (G7CGT2 1-486 R384E)": "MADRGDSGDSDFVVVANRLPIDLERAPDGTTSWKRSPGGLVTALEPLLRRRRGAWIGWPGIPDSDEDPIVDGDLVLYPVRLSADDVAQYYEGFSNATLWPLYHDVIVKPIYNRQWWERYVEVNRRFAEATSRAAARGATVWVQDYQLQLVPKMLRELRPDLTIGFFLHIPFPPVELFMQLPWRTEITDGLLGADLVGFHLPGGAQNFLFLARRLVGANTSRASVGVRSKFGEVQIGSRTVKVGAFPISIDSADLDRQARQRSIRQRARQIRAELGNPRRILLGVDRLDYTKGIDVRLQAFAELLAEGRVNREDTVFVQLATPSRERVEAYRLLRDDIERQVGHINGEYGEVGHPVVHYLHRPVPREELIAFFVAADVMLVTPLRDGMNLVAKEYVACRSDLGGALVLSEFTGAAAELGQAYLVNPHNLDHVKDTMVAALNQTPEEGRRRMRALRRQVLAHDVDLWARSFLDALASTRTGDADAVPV", "test": "Effect of allosteric regulators on OtsA activity (R384E)", "format": "biochemical, Mycobacterium thermoresistibile", "procedure": "(§1) . All reagents used were obtained from Sigma-Aldrich. The enzymatic reactions (200-μl reaction mixture) were performed at 37°C, and the reaction mixtures contained 50 mM Tris (pH 7.5), 200 mM NaCl, 10 mM MgCl2, 50 mM KCl, 0.3 mM NADH, 2.5 mM phosphoenolpyruvate (PEP), 10 units of pyruvate kinase-lactate dehydrogenase, 0.1 μM enzyme, and various concentrations of G6P and NDP-glucose to determine kinetic parameters.\n(§2) […]. All experiments were performed in triplicate in a PHERAstar plate reader (BMG Labtech), and data were analyzed with Prism 5 (GraphPad Software)."}, "[2]": {"target": "T2, M. thermoresistibile OtsA R213E (Mycolicibacterium thermoresistibile, UniProt G7CGT2, R213E)", "T2 sequence (G7CGT2 1-486 R213E)": "T1 sequence (G7CGT2 1-486 R384E)", "test": "Effect of allosteric regulators on OtsA activity (R213E)", "format": "biochemical, Mycobacterium thermoresistibile", "procedure": "as §1, §2"}}, "note": "pIC50: −log10 of the molar value."}
{"smiles": "O=C(O)C(CO)OP(=O)(O)O", "note": "(centres unmarked) [2PG, 2-phosphoglyceric acid]", "values": [{"measurement": "pIC50", "setting": "[1]", "result": "> 1.00"}, {"measurement": "pIC50", "setting": "[2]", "result": 1.92}]}
